Tested on: inflammatory ILC2s (ST2-KLRG1+ ILCs; iILC2s)
Assay: culture of sort-purified inflammatory ILC2s (iILC2s) with IL-33 or IL-25 with or without CGRP, qPCR
Type: cell-based, mouse
Conditions: IL-33 or IL-25 with vs without CGRP, 6 hours
Protocol: Isolation of lung cells for fluorescence-activated cell sorting. Mice were euthanized and perfused with 8 ml cold PBS via the right heart ventricle. Lung lobes were removed from the chest cavity and transferred into gentleMACS C tubes containing Buffer S and enzymes A and D from the lung dissociation kit (Cat #130-095-927; Miltenyi Biotec). After manual dissociation of the tissue by running program lung_01 of the automated tissue dissociator (gentleMACS; Miltenyi Biotec), and digestion at 37° C. for 25 min on a rotator, the tissue pieces were further dissociated by running program lung_02 of the automated tissue dissociator. Subsequently, the single-cell suspension was passed through a 70 um cell strainer and washed with DPBS (Cat #14190-144; Thermo Fisher Scientific) containing 0.5% bovine serum albumin (Cat #BP1600-1; Fisher Scientific) and 2 mM EDTA. After incubation of the cells with CD90.2 MicroBeads (Cat #130-049-101; Miltenyi Biotec) on ice for 17 min, cells were washed and transferred onto LS columns (Cat #130-042-401; Miltenyi Biotec) to enrich for CD90.2-positive cells by positive selection. […] Cells were purified by fluorescence-activated cell sorting using a BD FACS Aria IIIu flow cytometer with 3 lasers (405 nm, 488 nm, 640 nm) or 4 lasers (405 nm, 488 nm, 561 nm and 640 nm) (BD Biosciences). […]

CGRP: neuropeptide calcitonin gene-related peptide (encoded by Calca), ligand of the Ramp1/Calcrl receptor; given at 100 nM in vitro, 6.65 ug nasally
Il5 and Il13 expression in iILC2s: no differences

Reference: US20210386829A1, “COMPOSITIONS AND METHODS FOR MODULATING CGRP SIGNALING TO REGULATE INNATE LYMPHOID CELL INFLAMMATORY RESPONSES” (The Broad Institute, Inc., priority 2018, published 2021)
